Read-outs that look alike come from different tables or passages of the source.
Key:
Acute toxicity (LD50) = settings: mouse, in vivo, ip; male adult mice, i.p., mortality after 24 h, graphical method
Procedure: To determine the acute toxicity of the compounds, the LD50 values for compounds 2, 3, 6, 9 and 10 were determined by injecting different gradual increased doses of the tested compounds into male adult mice, then calculating the dose corresponding to 50% animal death (Table 3).
Groups of male adult mice, each of six animals, were injected i.p. with graded doses of each of the test compounds. The percentage of mortality in each group of animals was determined 24 h, after injection. Computation of LD50 was processed by a graphical method.

[1] = tested on: Gastric Ulceration in mice; assay: Ulcerogenic activity (gastric ulceration in mice); assay type: in vivo; settings: oral, 6 h; for mean ulcer lesions ± SEM: n = 6
Procedure: (§1) Female albino mice (16–18 g) and Sprague Dawley […] (100 g) obtained from the Theodor Bilharz Research Institute (TBRI, Giza city, Egypt) were used. Approval of the institutional animal ethical committee for the animal studies was obtained from the Office of Environmental Health and Radiation Safety, ACUC Protocol 1096-5. The animals were maintained according to accepted standards of animal care.
Seventy-two mice were divided into twelve groups. Ulcerogenic activity was evaluated after oral administration of the tested compounds or indomethacin at doses of 10, 50, and 100 mg/kg. Control mice received 0.5% CMC. Food but not water was removed 24 h before administration of the tested compounds. After 6 h, the mice were sacrificed; the stomach was removed and opened along the greater curvature, washed with distilled water and cleaned gently by dipping in saline. The mucosa damage for each stomach was examined using a stereoscopic microscope and compared with the reference drug indomethacin according to the reported procedure.

[2] = tested on: carrageenan induced edema; assay: Anti-inflammatory activity, carrageenan induced edema (paw volume, plethysmometer); assay type: in vivo, mice; settings: for inhibition in vivo at 5 mg/kg: Mus musculus, po, dose 5 mg/kg b.m (p.o.), n = 6, read-out: Edema inhibition (Means ± E.M); for anti-inflammatory activity (in words): grading in the structure activity discussion
Procedure: as §1
Newly synthesized thienopyrimidine derivatives were dissolved in 0.5% carboxymethyl cellulose (CMC) as a homogeneous solution and administered […]. One hundred and eight […] were divided into eighteen groups, each group consisting of six animals. Anti-inflammatory activity of the compounds was studied in mice using carrageenan induced edema. A suspension of the tested compound and the reference drug, indomethacin in aqueous solution was administered orally at a dose 5 mg/kg. Control animals were treated with 0.5% CMC only. After 30 min, 0.1 mL of freshly prepared 1.0% carrageenan solution (in formol saline) was injected into the sub-plantar region of the right hind paw according to Hernandez-Perez. The right paw volume was measured using a digital plethysmometer (Model 7150, Ugo Basile, Varese, Italy), directly before and after 1, 2, 3 h, intervals after administration of the tested compounds.

Compound | LD50 at 24 h (Acute toxicity (LD50)) | number of mice lesions bigger than 0.5 mm in length per total no. of mice ([1]; dose 10 mg/kg) | mean ulcer lesions ± SEM ([1]; dose 10 mg/kg) | number of mice lesions bigger than 0.5 mm in length per total no. of mice ([1]; dose 50 mg/kg) | mean ulcer lesions ± SEM ([1]; dose 50 mg/kg) | number of mice lesions bigger than 0.5 mm in length per total no. of mice ([1]; dose 100 mg/kg) | mean ulcer lesions ± SEM ([1]; dose 100 mg/kg) | inhibition in vivo at 5 mg/kg ([2]; 1 h) | inhibition in vivo at 5 mg/kg ([2]; 2 h) | inhibition in vivo at 5 mg/kg ([2]; 3 h) | anti-inflammatory activity (in words) [2]
COc1ccc(-c2nc(NN)c3c4c(sc3n2)CCCCCC4)cc1 [Compound 2, 2-(4-Methoxyphenyl)-4-hydrazinocycloocteno[4.5]thieno[2.3-d]pyrimidine] | 2514 ± 12 mg/kg | 0/6 | 0 mm | 0/6 | 0 mm | 0/6 | 0 mm | 42.3 ± 1.1% | 49.3 ± 1.1% | 57.1 ± 1.4% | high
COc1ccc(-c2nc3sc4c(c3c3nnc(CC#N)n23)CCCCCC4)cc1 [Compound 3, 5-(4-Methoxyphenyl)-3-cyanomethylcycloocteno[4.5]thieno[2.3-d]triazolo[1,2,4]-[4,5-a]pyrimidine] | 2131 ± 13 mg/kg | – | – | – | – | – | – | 37.2 ± 1.3% | 46.3 ± 1.5% | 54.4 ± 1.1% | high
COc1ccc(C2=Nc3sc4c(c3C3=NCC(=O)N23)CCCCCC4)cc1 [Compound 4] | – | – | – | – | – | – | – | 16.5 ± 1.3% | 17.2 ± 1.1% | 19.3 ± 1.2% | weak
COc1ccc(-c2nc3sc4c(c3c3nc5ccccc5c(=O)n23)CCCCCC4)cc1 [Compound 5, 8-(4-Methoxyphenyl)-6-oxo-cycloocteno[4.5]thino[2,3-d]pyrimidino[4.3-b]quinazoline] | – | – | – | – | – | – | – | 11.7 ± 1.1% | 13.2 ± 1.2% | 15.2 ± 1.5% | weak
COc1ccc(-c2nc3sc4c(c3c3nnnn23)CCCCCC4)cc1 [Compound 6, 5-(4-Methoxyphenyl)-cycloocteno[4.5]thieno[2.3-d]tetrazolo[4.5-e]pyrimidine] | 2047 ± 12 mg/kg | – | – | – | – | – | – | 34.5 ± 1.2% | 42.1 ± 1.3% | 48.2 ± 1.2% | high
COc1ccc(-c2nc3sc4c(c3c3n[nH]c(=O)c(=O)n23)CCCCCC4)cc1 [Compound 7, 6-(4-Methoxyphenyl)-3,4-dioxo-2H-cycloocteno[4.5]thieno[2,3-d]triazino[1,2.4]-[3,4-a]pyrimidine] | – | – | – | – | – | – | – | 20.8 ± 1.4% | 22.3 ± 1.3% | 25.1 ± 1.4% | moderate
COc1ccc(C2=Nc3sc4c(c3C3=NNC(=O)CN23)CCCCCC4)cc1 [Compound 8, 6-(4-Methoxyphenyl)-3-oxo-2,4-dihydrocycloocteno[4,5]thieno[2,3-d]triazino-[1,2,4][3,4-a]pyrimidine] | – | – | – | – | – | – | – | 21.3 ± 1.2% | 24.6 ± 1.1% | 26.5 ± 1.2% | moderate
COc1ccc(-c2nc3sc4c(c3c3n[nH]c(=O)n23)CCCCCC4)cc1 [Compound 9, 5-(4-Methoxy)phenyl-3-oxo-2H-cycloocteno[4,5]thieno[2,3-d][1,2,4]triazolo[4,5-a]pyrimidine] | 1832 ± 12 mg/kg | – | – | – | – | – | – | 31.2 ± 1.2% | 35.1 ± 1.5% | 40.2 ± 1.6% | high
COc1ccc(-c2nc3sc4c(c3c3nnc(C)n23)CCCCCC4)cc1 [Compound 10, 5-(4-Methoxyphenyl)-3-methyl-2H-cycloocteno[4,5]thieno[2,3-d][1,2,4]triazolo-[4,5-a] pyrimidine] | 2341 ± 11 mg/kg | 0/6 | 0 mm | 0/6 | 0 mm | 0/6 | 0 mm | 39.1 ± 1.5% | 48.4 ± 1.2% | 55.6 ± 1.1% | high
COc1ccc(-c2nc3sc4c(c3c3nnc(Nc5ccccc5)n23)CCCCCC4)cc1 [Compound 12] | – | – | – | – | – | – | – | 19.4 ± 1.6% | 21.3 ± 1.3% | 23.3 ± 1.2% | moderate
COc1ccc(-c2nc3sc4c(c3c3nnc(-c5ccccc5)n23)CCCCCC4)cc1 [Compound 14, 5-(4-Methoxyphenyl)-4-phenylcycloocteno[4,5]thieno[2,3-d][1,2,4]triazolo[4,5-c]pyrimidine] | – | – | – | – | – | – | – | 7.3 ± 1.1% | – | 11.2 ± 1.5% | weak
COc1ccc2c(c1)c(CC(=O)O)c(C)n2C(=O)c1ccc(Cl)cc1 [Indomethacin, reference compound] | 1817 ± 15 mg/kg | 3/6 | 1.4 ± 0.2 mm | 5/6 | 1.9 ± 0.2 mm | 6/6 | 2.1 ± 0.2 mm | 44.7 ± 1.2% | 52.4 ± 1.2% | 61.2 ± 1.3% | –

Reference: publication PMC6269734, “Synthesis and Pharmacological Activities of Some New Triazolo- and Tetrazolopyrimidine Derivatives” (Molecules, 2013)
